Reference: patent publication US7482425B2, “Compositions for lipid matrix-assisted chemical ligation” (Amylin Pharmaceuticals, Inc., priority 2002, dated 2009)
Where no end group is shown, it is not given here.

Settings: pH 7.5

**Q.** For “TGRPEWIWLALGTALMGLGTLYFLVKGMGVSDPDAKK [Peptide 1, TGRPEWIWLALGTALMGLGTLYFLVKGMGVSDPDAKK]”, which solubility is on record?
**A.** does not dissolve
